{"source": "patent US6916843B1", "about": "“Anti-inflammatory actions of cytochrome P450 expoxygenase-derived eicosanoids” (The United States of America as represented by the …, priority 1999, dated 2005)", "key": {"IκB kinase (IKK)": {"test_system": "IκB kinase (IKK)", "experiment": "IKK activity assay with GST-IκB-α substrate, TNF-α-stimulated endothelial cells", "assay_type": "biochemical, human", "conditions": "100 nM, TNF-α 10 ng/ml, 15 min", "description": "A set of gel shift assays was performed. […] In some assays, [11,12]-EET (100 nM) was also added directly to the IKK assay (in vitro). As a control for nonspecific phosphorylation, the assay was performed without the addition of immunoprecipitated IKK (no enzyme) or in the presence of a IκB-α mutant (ΔSer 32, Ser 36→Thr) as substrate. The assay was performed three times with similar results.\nSpecificity of IKB was determined by the complete absence of phosphorylation when the mutated IκB-α substrate, GST-1κB-α (Δ32,36: S→T) which cannot be phosphorylated at serine residues 32 and 36, was substituted for wild-type GST-IκB-α."}, "[1]": {"test_system": "bovine aortic endothelial cells (BAECs)", "experiment": "Hypoxia-reoxygenation-induced cell injury in BAECs (cell number, LDH release, trypan blue)", "assay_type": "cell-based", "conditions": "for hypoxia-reoxygenation-induced cell injury, epoxide hydrolase inhibitors: DCU 10 μmol/L and elaidamide 10 μmol/L added together prior to hypoxia", "description": "Effects of P450-derived arachidonic acid metabolites on hypoxia-reoxygenalion-induced injury in BAECs. BAECs, either untransfected, or 48 hours after transfection with pcDNA3.1/GFP or pcDNA3.1/CYP2J2, or 10 min after treatment with eicosanoids, epoxide hydrolase inhibitors or vehicle, were exposed to hypoxia (95% nitrogen plus 5% carbon dioxide) for 24 hours, followed by reoxygenation (95% air plus 5% carbon dioxide) for 4 hours using an environmental chamber within a 37° C. incubator. Cells maintained under continuous (28 hours) normoxic conditions served as controls.\nEETs were prepared by total chemical synthesis as previously described (Corey el al., 102 J. Am. Chem. Soc. 1433-1435 (1980), Falck et al., 23 Tetrahedron Lett. 1755-1756 (1982)). DHETs were prepared by chemical hydration of EETs as described by Capdevila et al., 187 Methods Enzymol. 386-394 (1990). Synthetic EETs and DHETs were purified by reverse-phase HPLC prior to use. BAECs, grown to ˜85% confluency, were treated with either synthetic [11,12]-EET, [11,12]-DHET, or [14,15]-EET in ethanol vehicle (1 μmol/L each, final concentration) for 10 min prior to exposure to hypoxia-reoxygenation. […] Cells treated with vehicle alone served as controls.\nAfter hypoxia-reoxygenation, the cell number was determined using a hemocytometer and the degree of cell injury was assessed by measuring lactate dehydrogenase release into the culture medium using the CytoTox 96 Non-Radioactive Cytotoxicity Assay Kit (Promega, Madison, Wis.) and by counting the number of trypan blue dye stained cells. Data are expressed as a percentage of values obtained from control cells maintained under normoxic conditions."}, "CYP2J2": {"target": "T1, CYP2J2 (Homo sapiens, UniProt P51589)", "T1 construct": "The CYP2J2 cDNA (1.9 kb) or GFP cDNA (0.75 kb) were subcloned into the plasmid pcDNA3.1; expressed in transfected cells; host or cells: bovine aortic endothelial cells (BAECs), transient transfection with pcDNA3.1/CYP2J2", "T1 sequence (P51589 1-502)": "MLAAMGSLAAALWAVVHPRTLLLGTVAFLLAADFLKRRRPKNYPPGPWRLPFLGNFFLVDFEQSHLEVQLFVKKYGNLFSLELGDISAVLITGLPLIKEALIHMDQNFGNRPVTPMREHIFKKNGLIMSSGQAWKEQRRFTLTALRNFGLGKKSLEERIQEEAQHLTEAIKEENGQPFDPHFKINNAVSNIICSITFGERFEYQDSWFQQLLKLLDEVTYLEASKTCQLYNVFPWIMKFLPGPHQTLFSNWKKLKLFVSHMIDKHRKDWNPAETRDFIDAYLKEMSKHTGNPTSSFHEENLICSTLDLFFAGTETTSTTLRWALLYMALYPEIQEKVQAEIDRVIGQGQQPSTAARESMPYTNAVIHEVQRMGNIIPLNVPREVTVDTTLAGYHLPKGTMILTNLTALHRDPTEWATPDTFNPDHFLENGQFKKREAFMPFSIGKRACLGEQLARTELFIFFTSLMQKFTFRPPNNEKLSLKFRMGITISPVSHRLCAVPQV", "experiment": "Arachidonic acid epoxygenase metabolite formation in CYP2J2-transfected bovine aortic endothelial cells (HPLC)", "description": "To study the formation of EETs by CYP2J2 in endothelial cells, we measured EET synthesis from bovine endothelial cells transfected with CYP2J2 cDNA. Early passage bovine aortic endothelial cells were grown to 60-70% confluence and transfected with either pcDNA3.1 or pcDNA3.1/CYP2J2 using Fugene™ 6 reagent (Boehringer Mannheim Corp.) according to the manufacturer's instructions. Using this method, the transfection efficiency was 10-20%. Forty-eight hours post-transfection, cells were washed twice with phosphate-buffered saline and incubated with freshly purified [^3H]arachidonic acid (185 Ci/mmol, 4-5 μCi/175 mm^2 flask) and unlabeled arachidonic acid (10 μM) was added before addition of arachidonic acid. At various time points, the media and cells were removed and extracted with diethyl ether. The combined organic phases were dried under a nitrogen stream, resolved by reverse-phase high performance liquid chromatography (HPLC) and quantified by liquid scintillation as described by Wu et al., 271 J. Biol. Chem. 3460 (1996). […]\nThese control GFP-transfected cells metabolized radiolabeled arachidonic acid to epoxygenase metabolites (EETs and DHETs) at a rate of ˜8 pmol/min/10^7 cells (FIG. 6). Endothelial cell arachidonic acid metabolism was determined as follows: Forty-eight hours after transfection with either pcDNA3.1/GFP or pcDNA3.1/CYP2J2, BAECs were incubated with freshly purified [5, 6, 8, 9, 11, 12, 14, 15-^3H]arachidonic acid (185 Ci/mmol, 4-5 μCi/175-mm^2 flask) in serurm-free culture medium at 37° C. for 30-120 min. […] The BAECs and culture medium were then collected and the reaction products extracted into ethyl ether, dried under a nitrogen stream, analyzed by reverse-phase HPLC, and quantified by on-line liquid scintillation using a Radiomatic Flo-One β detector (Radiomatic Instruments, Tampa, Fla.) as described (Wu et al., 271 J. Biol. Chem. 12551 (1996), Node et al., 285 Science 1276-1279 (1999)). […]"}, "VCAM-1 promoter": {"test_system": "VCAM-1 promoter", "experiment": "VCAM-1 promoter construct activity in transiently transfected bovine aortic endothelial cells", "assay_type": "cell-based", "conditions": "100 μM", "excerpt": "To localize cis-acting elements in the VCAM-1 promoter that might mediate the inhibitory effects of [11,12]-EET, we transiently transfected bovine aortic endothelial cells with a -755 bp VCAM-1 promoter construct (DeCaterina et al., 96 J. Clin. Invest. 60 (1995)). Stimulation with TNF-α induced a 13-fold increase in relative VCAM-1 promoter activity that was abolished by cotreatment with [11,12]-EET. […] To confirm that the tandem κB sites in the VCAM-1 promoter are repressed by [11,12]-EET we subcloned them into a heterologous promoter construct containing the SV40 enhancer linked to the luciferase reporter gene (pκB.Luc). Stimulation of transfected endothelial cells with TNF-α induced a 6-fold increase in pκB.Luc promoter activity that was abolished by co-treatment with [11,12]-EET, but not [14,15]-EET (FIG. 2C). […] Compared to transfection with the empty pcDNA3.1 vector, overexpression of CYP2J2 decreased TNF-induced VCAM-1 and pκB.Luc promoter activity by 70-80% which were reversed in the presence of SK[…] (FIG. 2C). Neither transfection with CYP2J2 cDNA alone nor treatment with SK[…] alone affected basal promoter activity."}, "NF-κB": {"test_system": "NF-κB", "experiment": "NF-κB heterologous promoter (pκB.Luc) luciferase reporter in bovine endothelial cells", "assay_type": "cell-based", "conditions": "100 μM", "description": "(§1) FIG. 2 is a set of bar graphs of cell-surface enzyme immunoassays. […] The difference between treatment with TNF-α alone and in the presence of [11,12]-EET were statistically significant (*p<0.05, **p<0.01), OD, optical density. […] After stimulation with TNF-α (10 ng/ml) in the presence or absence of EET, promoter activity was determined relative to basal activity. *p<0.01 vs. TNF-α alone.\nTo localize cis-acting elements in the VCAM-1 promoter that might mediate the inhibitory effects of [11,12]-EET, we transiently transfected bovine aortic endothelial cells with a −755 bp VCAM-1 promoter construct (DeCaterina et al., 96 J. Clin. Invest. 60 (1995)). Stimulation with TNF-α induced a 13-fold increase in relative VCAM-1 promoter activity that was abolished by cotreatment with [11,12]-EET. […] To confirm that the tandem κB sites in the VCAM-1 promoter are repressed by [11,12]-EET we subcloned them into a heterologous promoter construct containing the SV40 enhancer linked to the luciferase reporter gene (pκB.Luc). Stimulation of transfected endothelial cells with TNF-α induced a 6-fold increase in pκB.Luc promoter activity that was abolished by co-treatment with [11,12]-EET, but not [14,15]-EET (FIG. 2C). […] Compared to transfection with the empty pcDNA3.1 vector, overexpression of CYP2J2 decreased TNF-induced VCAM-1 and pκB.Luc promoter activity by 70-80% which were reversed in the presence of SKF525A (FIG. 2C). Neither transfection with CYP2J2 cDNA alone nor treatment with SKF525A alone affected basal promoter activity."}, "VCAM-1 expression": {"test_system": "VCAM-1 expression", "experiment": "Cell-surface enzyme immunoassay of cytokine-induced VCAM-1 expression in endothelial cells", "assay_type": "cell-based, human", "conditions": "KCa channel blocker 100 nM", "description": "as §1\nTo determine the biological effects of EETs, we treated tumor necrosis factor alpha (TNF-α)-stimulated human endothelial cells with physiological relevant concentrations (1-100 nM) of [5,6]-EET, [8,9]-EET, [11,12]-EET, [14,15]-EET, [11,12]-DHET."}}, "note": "“Also recorded” adds a separate entry of the source. Ends that are not written are not given here."}
{"compound": "CCCCC/C=C\\C/C=C\\C/C=C\\CC1OC1CCCC(=O)O", "note": "(stereo not drawn) [[5,6]-EET]", "values": [{"measurement": "inhibition of TNF-α-induced IKK activity", "setting": "IκB kinase (IKK)", "value": "to a lesser extent"}]}
{"compound": "CCCCCCCC/C=C/CCCCCCCC(N)=O", "note": "[elaidamide, reference compound]", "values": [{"measurement": "hypoxia-reoxygenation-induced cell injury, epoxide hydrolase inhibitors", "setting": "[1]", "value": "limits; also recorded: significantly attenuates"}]}
{"compound": "CCCCC/C=C\\CC(O)C(O)C/C=C\\C/C=C\\CCCC(=O)O", "note": "(stereo not drawn) [[11,12]-DHET]", "values": [{"measurement": "hypoxia-reoxygenation-induced cell injury, number of trypan blue stained cells", "setting": "[1]; 1 μmol/L, added 10 min prior to hypoxia (24 h hypoxia, 4 h reoxygenation)", "value": "active in attenuating; also recorded: significantly attenuates"}]}
{"compound": "O=C(NC1CCCCC1)NC1CCCCC1", "note": "[DCU, dicyclohexylurea, reference compound]", "values": [{"measurement": "hypoxia-reoxygenation-induced cell injury, epoxide hydrolase inhibitors", "setting": "[1]", "value": "significantly attenuates"}, {"measurement": "hypoxia-reoxygenation-induced cell injury, epoxide hydrolase inhibitors", "setting": "[1]; listed as dicyclohexylurea", "value": "limits"}]}
{"compound": "CCCC(C(=O)OCCN(CC)CC)(c1ccccc1)c1ccccc1", "note": "[SKF525A, reference compound]", "values": [{"measurement": "inhibition of increased epoxygenase activity of CYP2J2-transfected BAECs", "setting": "CYP2J2; 100 μmol/L", "value": "inhibited"}, {"measurement": "inhibition of formation of epoxygenase metabolites by CYP2J2 transfected cells", "setting": "CYP2J2; inhibitor 100 μM", "value": "> 80", "unit": "%"}, {"measurement": "reversal of CYP2J2-mediated decrease of VCAM-1 promoter activity", "setting": "VCAM-1 promoter", "value": "reversed"}, {"measurement": "reversal of CYP2J2-mediated decrease of pκB.Luc promoter activity", "setting": "NF-κB", "value": "reversed"}]}
{"compound": "charybodotoxin [reference compound]", "values": [{"measurement": "block of the inhibitory effect of [11,12]-EET on TNF-α-induced VCAM-1 expression", "setting": "VCAM-1 expression", "value": "did not block"}]}
{"compound": "CCCCC/C=C\\C/C=C\\CC1OC1C/C=C\\CCCC(=O)O", "note": "(stereo not drawn) [[8,9]-EET]", "values": [{"measurement": "inhibition of TNF-α-induced IKK activity", "setting": "IκB kinase (IKK)", "value": "to a lesser extent"}]}
{"compound": "iberiotoxin (QFTDVDCSVSKECWSVCKDLFGVDRGKCMGKKCRCYQ; not fully specified (residue 1, bridges); cysteine pairing not given here; UniProt P24663 1-37, looked up) [reference compound]", "values": [{"measurement": "block of the inhibitory effect of [11,12]-EET on TNF-α-induced VCAM-1 expression", "setting": "VCAM-1 expression", "value": "did not block"}]}
